{
  "source": "patent US20240165259A1",
  "about": "“BIOORTHOGONAL REACTION SUITABLE FOR CLICK/UNCLICK APPLICATIONS” (DANA-FARBER CANCER INSTITUTE, INC., priority 2021, published 2024)",
  "key": {"[1]": {"biological_target": "T1, lysozyme-COT 15 in HEK293T cell lysate (Gallus gallus, UniProt P00698)", "T1 construct": "purchased", "T1 sequence (P00698 19-147)": "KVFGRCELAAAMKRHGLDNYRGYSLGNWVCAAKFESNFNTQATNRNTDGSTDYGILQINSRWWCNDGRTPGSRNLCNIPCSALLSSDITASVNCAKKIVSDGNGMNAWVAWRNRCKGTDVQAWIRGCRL", "assay": "Protein labeling in the presence of HEK293T cell lysate", "assay_type": "biochemical", "conditions": "13 and lysozyme-COT 15, HEK293T cell lysate, PBS, 2 hours", "experimental": "There appeared to be no cross-reactivity between dialkylhydroxylamine and other proteins under these conditions.\nCell Culture: HEK-293T cells were cultured in Dulbecco's Modified Eagle Media (DMEM, Corning®) containing 10% fetal bovine serum (FBS, Sigma), 100 units/mL penicillin, and 0.1 mg/mL streptomycin (Sigma) in a humidified chamber at 37° C. with 5% CO2. Cells were passaged and dissociated with 0.25% trypsin, 0.1% ethylenediaminetetraacetic acid (EDTA) in Hanks' balanced salt solution (HBSS) (Corning®). Cells tested negative for […] by the MycoAlert™ PLUS Mycoplasma Detection Kit (Lonza) following the manufacturer's protocol.\nCell Lysate: Cell culture media was aspirated prior to lysis. Cells (10 cm dish, ˜80% confluency) was lysed by adding lysis buffer (1.0 mL, 4° C.; 150 mM NaCl, 50 mM Tris (pH 8.0), 1% triton X-100). After centrifugation (13,000×g) at 4° C., the supernatant was transferred to a clean tube, and the protein concentration was determined by BCA (bicinchoninic acid) protein assay (Pierce™ BCA Protein Assay Kit). […]\nProtein Labeling Experiments: Lysozyme-COT 15 (0.75 μg, 5.0 μL, 0.15 mg/mL in deionized water) was aliquoted to form 4 samples. […] In-gel fluorescence was imaged with a Typhoon™ FLA 9500 (GE) at 532 nm with a photomultiplier tube (PMT) setting of 500 V. The experiment was carried out in triplicate."}, "[2]": {"assay": "Stability in PBS with or without glutathione, sodium ascorbate or HEK293T cell lysate (HPLC)", "assay_type": "physicochemical", "experimental": "The stability of both the enamine N-oxide and hydroxylamine species under a variety of biologically relevant conditions were verified at various time points (FIG. 5A-FIG. 5B). […] However, approximately 40% of the hydroxylamine had decomposed by the 24 hour time point. The primary degradation products were consistent with hydrolysis of the regioisomeric nitrones that were likely generated by autoxidation. Consequently, this degradation pathway could be abrogated by the addition of cellular reductants such as ascorbic acid (5 mM) or glutathione (5 mM) (Bobko et al., Free Radical Biol. Med. 42(3):404-412 (2007)).\nAs with the hydroxylamine, the stability of enamine N-oxide 17 was evaluated by HPLC under biologically relevant conditions.\nAll reactions were monitored by HPLC at 0, 1, 2, 4, 8, and 24 hour time points.\nHPLC analysis: Reactions with enamine N-oxide 17 were analyzed by HPLC (Pursuit 200 Å C18, 4.6×150 mm, 10 μm particles, 1 mL/min flow rate, eluent: isocratic 0% MeCN/H2O+0.1% TFA (1 min), gradient 0→100% MeCN/H2O+0.1% TFA (14 minutes), isocratic 100% MeCN/H2O+0.1% TFA (1 minute)) and quantified using its absorbance at 280 nm. Reactions with hydroxylamine 13 were analyzed by HPLC (Pursuit 200 Å C18, 4.6×150 mm, 10 μm particles, 1 mL/min flow rate, eluent: isocratic 0% MeCN/H2O+0.1% TFA (1 minute), gradient 0-20% MeCN/H2O+0.1% TFA (1 minute), gradient 20-50% MeCN/H2O+0.1% TFA (16 minutes), gradient 50→100% MeCN/H2O+0.1% TFA (2 minutes), isocratic 100% MeCN/H2O+0.1% TFA (1 minute)) and quantified using its absorbance at 254 nm.\nStability in PBS: Enamine N-oxide 17 (4 μL, 15 mM in 25% v/v MeOH/PBS, pH 7.4) was added to PBS (116 μL, pH 7.4; 500 μM final concentration). Separately, hydroxylamine 13 (3 μL, 20 mM in deionized H2O) was added to PBS (117 μL, pH 7.4; 500 μM final concentration). Each solution was monitored by HPLC at each time point.\nStability in the presence of glutathione, sodium ascorbate, and cell lysate: The reactions were conducted as described above in the Stability in PBS section except the PBS solution was first supplemented with glutathione (5 mM final concentration), sodium ascorbate (5 mM final concentration), or HEK293T cell lysate (1 mg/mL final concentration) and pH adjusted to 7.4 before adding enamine N-oxide 17 (500 μM final concentration) or hydroxylamine 13 (500 μM final concentration)."}},
  "data": [
    {"smiles": "CN(O)CCOCCNC(=O)c1ccc2c(c1)C1(OC2=O)c2ccc(N(C)C)cc2Oc2cc(N(C)C)ccc21", "note": "[compound 13, 3′,6′-bis(dimethylamino)-N-(2-(2-(hydroxy(methyl)amino)ethoxy)ethyl)-3-oxo-3H-spiro[isobenzofuran-1,9′-xanthene]-6-carboxamide]", "values": [
      {"measurement": "labeling specificity in the presence of cell lysate", "setting": "[1]", "value": "lysozyme was labeled exclusively"},
      {"measurement": "degradation in cell lysate", "setting": "[2]; HEK293T cell lysate (1 mg/mL), 24 hours, no exogenous reductants", "value": "no degradation above background"},
      {"measurement": "degradation in the presence of cellular reductants", "setting": "[2]; PBS with ascorbic acid (5 mM) or glutathione (5 mM), 24 hours", "value": "Negligible degradation"},
      {"measurement": "hydroxylamine decomposed", "setting": "[2]; PBS, room temperature, 24 hour time point", "value": "approximately 40%"},
      {"measurement": "compound intact", "setting": "[2]; PBS, room temperature, up to 8 hours, HPLC", "value": "> 86", "unit": "%"}
    ]}
  ]
}
